{"source": "patent US20210268056A1", "about": "“TAXODIONE FOR ITS USE FOR PROTECTING MUSCLE AND MEAT FROM OXIDATION” (CENTRE NATIONAL DE LA RECHERCHE SCIENTIFIQUE, priority 2018, published 2021)", "key": {"[1]": {"assay": "DPPH free radical scavenging assay", "format": "biochemical", "method": "Radical scavenging activity was evaluated using DPPH according to the method described by Morel et al. with some modifications (Morel, Landreau, Nguyen, Derbre, Grellier, Pape, et al., 2012). Tested extracts and standards were diluted in absolute ethanol at different concentrations. Ethanol was used as blank, and 10, 25, 50 and 75 μM Trolox were used as calibration solutions. Tested compounds or standard solutions (100 μL) were placed in 96-well plates in triplicate for each tested concentration. Absolute ethanol was added (75 μL). The reaction was initiated by adding 25 μL of freshly prepared DPPH solution (1 mM) to obtain a final volume of 200 μL/well. After 30 min in the dark at room temperature, absorbance was determined at 550 nm with a UVMAX Molecular Devices microtiter plate reader (MDS Inc., Toronto, Canada). Results were expressed as the effective concentration at which 50% of DPPH radicals were scavenged (EC50 in μg/mL). The results are the mean±standard deviation (SD) of three independent experiments (three wells per concentration for each experiment)."}, "human myoblasts [2]": {"system": "human myoblasts", "assay": "H2O2-induced cell death in human myoblasts (Muse Count and Viability Kit)", "format": "cell-based", "method": "The quadriceps muscle biopsy was from one healthy adult (AFM-BTR “Banque de tissus pour la recherche”). Myoblasts were purified from the muscle biopsy and were cultured on collagen-coated dishes in DMEM/F12 medium with 10% foetal bovine serum (FBS), 0.1% Ultroser G and 1 ng/ml of human basic fibroblast growth factor (proliferation medium), as previously described (Kitzmann, Bonnieu, Duret, Vernus, Barro, Laoudj-Chenivesse, et al., 2006). For cell differentiation, confluent cells were cultured in DMEM with 4% FBS for 3-5 days (differentiation medium).\nMyoblasts: Myoblasts were seeded in 35 mm collagen-coated dishes, cultured in proliferation medium, pre-incubated or not with the tested compounds for 24 h and then incubated or not with a lethal concentration of hydrogen peroxide (H2O2), a strong pro-oxidant/pro-apoptotic compound, for 24 h. […] Dead myoblasts were identified by staining with the Muse® Count and Viability Kit, and ROS was quantified with the Muse® Oxidative Stress Kit, followed by analysis with a Fluorescence Activated Cell Sorting (FACS) Muse apparatus (Millipore, France). […] As myotubes are too big for FACS analysis, H2O2 effect was determined by quantifying lactate dehydrogenase (LDH) activity, which is increased in the culture medium during tissue damage, using the LDH Cytotoxic Kit (ThermoFisher, France). […]"}, "γH2AX": {"system": "γH2AX", "assay": "Western blot of phosphorylated γH2AX in myoblasts", "format": "cell-based, human", "method": "Myoblasts were seeded in 35 mm collagen-coated dishes, cultured in proliferation medium, pre-incubated or not with TX for 24 h and then incubated or not with 80 μM H2O2 for 24 h. Protein extracts were separated by SDS-PAGE gel electrophoresis and transferred to nitrocellulose membranes, blocked at room temperature with Odyssey blocking buffer (Eurobio, France) and probed with the rabbit polyclonal anti-Histone H1.4 (Sigma-Aldrich; 1/5000) and rabbit polyclonal anti-gamma H2AX (Cell signalling; 1/3000) antibodies followed by IRDye® 680RD and IRDye® 800RD secondary antibodies (Eurobio, France). Fluorescence was quantified with the Odyssey software. Data were normalized to […] expression."}, "[3]": {"system": "Walker carcinosarcoma 256", "conditions": "Kupchan 1968; cited from earlier work"}, "acetylcholinesterase": {"biological_target": "acetylcholinesterase (Homo sapiens, UniProt P22303)", "sequence (P22303 32-614)": "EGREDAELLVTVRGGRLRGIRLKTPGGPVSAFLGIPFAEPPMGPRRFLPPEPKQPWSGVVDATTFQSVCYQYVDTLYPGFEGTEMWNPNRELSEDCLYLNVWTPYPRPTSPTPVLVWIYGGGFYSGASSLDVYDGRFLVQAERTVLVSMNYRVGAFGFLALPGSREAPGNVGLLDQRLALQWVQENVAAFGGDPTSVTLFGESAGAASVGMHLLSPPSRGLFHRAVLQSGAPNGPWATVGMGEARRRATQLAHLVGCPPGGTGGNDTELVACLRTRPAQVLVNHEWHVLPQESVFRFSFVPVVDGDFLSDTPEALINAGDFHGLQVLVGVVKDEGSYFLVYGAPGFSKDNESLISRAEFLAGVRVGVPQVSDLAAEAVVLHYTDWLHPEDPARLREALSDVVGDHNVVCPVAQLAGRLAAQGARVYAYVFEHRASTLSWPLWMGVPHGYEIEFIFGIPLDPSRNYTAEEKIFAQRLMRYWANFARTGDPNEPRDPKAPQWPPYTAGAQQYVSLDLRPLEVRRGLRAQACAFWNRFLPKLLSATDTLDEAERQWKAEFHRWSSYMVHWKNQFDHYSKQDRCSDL", "conditions": "Kuzma 2016; cited from earlier work"}, "bacteria": {"system": "bacteria", "conditions": "Machumi 2010; Bufalo 2016; cited from earlier work"}, "termites": {"system": "termites", "conditions": "Kusumoto 2009; cited from earlier work"}, "HIV-1 protease": {"biological_target": "T1, HIV-1 protease (Human immunodeficiency virus type 1 group M subtype B, UniProt P04585)", "T1 construct": "HIV-1 protease", "conditions": "Ahmed 1999; cited from earlier work"}, "fungi": {"system": "fungi", "conditions": "Kusumoto 2010; Machumi 2010; Bufalo 2016; cited from earlier work"}, "[4]": {"conditions": "Kolak 2009; cited from earlier work"}, "human myotubes [5]": {"system": "human myotubes", "assay": "ROS in myotubes (CellRox probe, TECAN)", "format": "cell-based", "conditions": "TX 0.5 μg/mL 24 h, then H2O2 (550 μM) 24 h, FIG. 4E"}, "protein phosphatase 2C": {"system": "protein phosphatase 2C", "conditions": "Kusumoto 2014; cited from earlier work"}, "colon cancer cells": {"system": "colon cancer cells", "conditions": "isolated in mixture with [9]-shogaol from Rosmarinus officinalis leaves; Borras Linares 2015; cited from earlier work"}, "Plasmodium": {"system": "Plasmodium", "conditions": "Zhang 2012; cited from earlier work"}, "human myoblasts [6]": {"system": "human myoblasts", "assay": "ROS quantification in myoblasts (Muse Oxidative Stress Kit, FACS)", "format": "cell-based", "method": "(§1) Myoblasts: Myoblasts were seeded in 35 mm collagen-coated dishes, cultured in proliferation medium, pre-incubated or not with the tested compounds for 24 h and then incubated or not with a lethal concentration of hydrogen peroxide (H2O2), a strong pro-oxidant/pro-apoptotic compound, for 24 h. The optimal H2O2 concentration was the concentration required to kill between 30% and 50% of all cells and was established before each experiment. In general, myoblasts were incubated with 120 μM H2O2. Dead myoblasts were identified by staining with the Muse® Count and Viability Kit, and ROS was quantified with the Muse® Oxidative Stress Kit, followed by analysis with a Fluorescence Activated Cell Sorting (FACS) Muse apparatus (Millipore, France). Myotubes: Myoblasts were seeded in 35 mm collagen-coated dishes, cultured in proliferation medium until confluence, and then switched to differentiation medium for 4 days. At day 2, cells were incubated with TX for 24 h prior to incubation with H2O2 for 24 h. […] As myotubes are too big for FACS analysis, H2O2 effect was determined by quantifying lactate dehydrogenase (LDH) activity, which is increased in the culture medium during tissue damage, using the LDH Cytotoxic Kit (ThermoFisher, France). In parallel, myotube cultures were loaded with a ROS-fluorescent probe (CellRox) followed by fluorescence quantification using a TECAN spectrophotometer."}, "microbes": {"system": "microbes", "conditions": "Zhang 2012; Kuzma 2012; cited from earlier work"}, "Leishmania": {"system": "Leishmania", "conditions": "Naman 2016; Zhang 2012; Machumi 2010; Bufalo 2016; cited from earlier work"}, "human myotubes [7]": {"system": "human myotubes", "assay": "H2O2 toxicity in myotubes by lactate dehydrogenase (LDH) activity", "format": "cell-based", "conditions": "TX 0.5 μg/mL 24 h, then H2O2 (550 μM) 24 h, FIG. 4D", "method": "as §1"}, "[8]": {"system": "MOLT-4, HT-29, and MCF-7 cells", "conditions": "Mirzaei 2017; cited from earlier work"}, "CHOP gene": {"system": "CHOP gene", "assay": "RT-qPCR of CHOP gene expression in myoblasts", "format": "cell-based, human", "method": "Myoblasts were seeded in 35 mm collagen-coated dishes, cultured in proliferation medium, pre-incubated or not with TX for 24 h, and then incubated or not with a sub-lethal concentration of H2O2 (80 μM; to avoid interference with dead cells) for 24 h. Then, total RNA was isolated from muscle cells using the NucleoSpin RNA II Kit (Macherey-Nagel, Hoerdt, France). The RNA concentration of each sample was measured with an Eppendorf BioPhotometer. cDNA was prepared using the Verso cDNA Synthesis Kit (Thermo Scientific, Ilkirch, France).\nThe expression of the CHOP (target) and RPLPO (control) genes was analysed by quantitative polymerase chain reaction (qPCR) on a LightCycler apparatus (Roche Diagnostics, Meylan, France), as previously described (El Haddad, Notarnicola, Evano, El Khatib, Blaquiere, Bonnieu, et al., 2017), using the following primers: […]"}, "protozoa": {"system": "protozoa", "conditions": "Mothana 2014; Kuzma 2017; cited from earlier work"}}, "note": "“Also recorded” adds a separate entry of the source."}
{"smiles": "CC(C)c1cc2c(c(O)c1O)[C@@]1(C(=O)O)CCCC(C)(C)[C@@H]1CC2", "note": "[CA, carnosic acid]", "values": [{"measurement": "DPPH free radical scavenging activity", "setting": "[1]", "value": "strong antioxidant capacities"}]}
{"smiles": "CC(C)c1cc2c(c(O)c1O)[C@@]13CCCC(C)(C)[C@@H]1C[C@@H]2OC3=O", "note": "[CO, carnosol]", "values": [{"measurement": "DPPH free radical scavenging activity", "setting": "[1]", "value": "strong antioxidant capacities"}]}
{"smiles": "CC1(C)CC(O)CC(C)(C)N1[O]", "note": "[Tempol, reference compound]", "values": [{"measurement": "protection against H2O2-induced cell death", "setting": "human myoblasts [2]; pre-incubation 24 h prior to lethal H2O2 (120 μM), Tempol 50 μM, RW all tested concentrations, FIG. 1A", "value": "protected human myoblasts efficiently"}]}
{"smiles": "O=C(/C=C/c1ccc(O)c(O)c1)O[C@H](Cc1ccc(O)c(O)c1)C(=O)O", "note": "[rosmarinic acid]", "values": [{"measurement": "DPPH free radical scavenging activity", "setting": "[1]", "value": "strong antioxidant capacities"}]}
{"smiles": "CC(C)C1=CC2=CC(=O)[C@H]3C(C)(C)CCC[C@]3(C)C2=C(O)C1=O", "note": "[taxodione, (4bS,8aS)-4b,5,6,7,8,8a-hexahydro-4-hydroxy-2-isopropyl-4b,8,8-trimethylphenanthrene-3,9-dione]", "values": [{"measurement": "level of γH2AX protein after H2O2", "setting": "γH2AX; TX 0.5 μg/mL 24 h, then 80 μM H2O2 24 h, FIG. 4B", "value": "reduced H2O2 effects"}, {"measurement": "level of γH2AX protein, TX alone", "setting": "γH2AX; without H2O2", "value": "did not have any effect"}, {"measurement": "inhibitory activity against Walker carcinosarcoma 256 in rats", "setting": "[3]", "value": "inhibitory activity"}, {"measurement": "acetylcholinesterase inhibition", "setting": "acetylcholinesterase", "value": "inhibition"}, {"measurement": "antibacterial activity", "setting": "bacteria", "value": "antibacterial"}, {"measurement": "Antitermitic activity (antifeedant effect)", "setting": "termites", "value": "Antitermitic activity"}, {"measurement": "antioxidant activity (H2O2-induced cell death) compared with CA and CO", "setting": "human myoblasts [2]; all tested concentrations, FIG. 3B", "value": "significantly more efficient"}, {"measurement": "HIV-1 protease inhibitory activity", "setting": "HIV-1 protease", "value": "low HIV-1 protease"}, {"measurement": "antifungal activity", "setting": "fungi", "value": "Antifungal effects"}, {"measurement": "activity in O2 assay", "setting": "[4]", "value": "not active in O2 assay"}, {"measurement": "ROS level (CellRox) after H2O2", "setting": "human myotubes [5]", "value": "significantly reduced H2O2 effects"}, {"measurement": "protein phosphatase 2C inhibitor", "setting": "protein phosphatase 2C", "value": "2C inhibitor,"}, {"measurement": "anti-proliferative activity", "setting": "colon cancer cells", "value": "anti-proliferative"}, {"measurement": "anti-plasmodial activity", "setting": "Plasmodium", "value": "anti-plasmodial"}, {"measurement": "level of ROS after H2O2", "setting": "human myoblasts [6]; TX 0.5 μg/mL 24 h, then H2O2 24 h, FIG. 4A", "value": "reduced H2O2 effects"}, {"measurement": "level of ROS, TX alone", "setting": "human myoblasts [6]; without H2O2", "value": "did not have any effect"}, {"measurement": "antimicrobial activity", "setting": "microbes", "value": "antimicrobial"}, {"measurement": "anti-leishmanial activity", "setting": "Leishmania", "value": "anti-leishmanial,; also recorded: anti-leishmanial"}, {"measurement": "LDH activity after H2O2", "setting": "human myotubes [7]", "value": "significantly reduced H2O2 effects"}, {"measurement": "anti-proliferative activity in MOLT-4, HT-29, and MCF-7 cells", "setting": "[8]", "value": "anti-proliferative"}, {"measurement": "DPPH free radical scavenging activity", "setting": "[1]", "value": "low"}, {"measurement": "level of CHOP mRNA after H2O2", "setting": "CHOP gene; TX 0.5 μg/mL 24 h, then 80 μM H2O2 24 h, FIG. 4C", "value": "reduced H2O2 effects"}, {"measurement": "level of CHOP mRNA, TX alone", "setting": "CHOP gene; without H2O2", "value": "did not have any effect"}, {"measurement": "antiprotozoal activity", "setting": "protozoa", "value": "weak antiprotozoal"}]}
